The numbers were not newly measured in publication PMC7211198, “Phase 1b study of a small molecule antagonist of human chemokine (C-C motif) receptor 2 (PF-04136309) in combination with nab-paclitaxel/gemcitabine in first-line treatment of metastatic pancreatic ductal adenocarcinoma” (Investigational New Drugs, 2019), which cites them from elsewhere.

The data set relates to advanced pancreatic cancer. Conditions: cited from earlier work.

Read-outs that look alike come from different tables or passages of the source.

As for `Nc1ccn([C@@H]2O[C@H](CO)[C@@H](O)C2(F)F)c(=O)n1` [gemcitabine], the “Observed rate of pneumonitis” value reads like this: (gemcitabine combined with nab-paclitaxel) “up to 4%”; (patients treated with gemcitabine) “approximately 1%”.
